Literature values, collected in patent US5846971A, “Oral antifungal composition” (Schering Corporation, priority 1997, dated 1998).

Tests used:
[1] = test system: Candida; details: in suspensions
[2] = test system: Aspergillis; details: in suspensions
[3] = test system: Cryptococcus; details: in suspensions

In the case of `CC[C@@H]([C@H](C)O)n1ncn(-c2ccc(N3CCN(c4ccc(OC[C@@H]5CO[C@@](Cn6cncn6)(c6ccc(F)cc6F)C5)cc4)CC3)cc2)c1=O` [the antifungal compound, (-)-(2R-cis)-4-[4-[4-[4-[[-5-(2,4-difluorophenyl)-tetrahydro-5-(1H-1,2,4-triazol-1-ylmethyl)furan-3-yl]methoxy]phenyl]-1-piperazinyl]phenyl]-2,-4-dihydro-2-[(S)-1-ethyl-2(S)-hydroxypropyl]-3H-1,2,4-triazol-3-one], the water solubility is given as “extremely low water solubility”, the antifungal activity [1] is given as “potent antifungal activity” and the antifungal activity [2] is given as “potent antifungal activity”. The antifungal activity [3] was “potent antifungal activity”.
